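Step 1: Grow cells in 96-well plates. Step 2: Expose to compound for 48 hours at 5 concentrations. Step 3: Interpolate endpoints linearly; if unreached, use highest concentration. GI50 is the concentration that inhibits growth by half.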 Calls of active or inactive are those of the source. Rule as the data show it: active = GI50 up to about 1.1 µM and inactive = higher.
Legend:
Experiment in all cases: NCI-60 cell line screen, 48 h
UACC-62 = system: UACC-62
EKVX = system: EKVX
Malme-3M = system: Malme-3M
HCC 2998 = system: HCC 2998
MOLT-4 = system: MOLT-4
SK-OV-3 = system: SK-OV-3
K562 = system: K562
HOP-18 = system: HOP-18
HCT-15 = system: HCT-15
SK-MEL-5 = system: SK-MEL-5
786-0 = system: 786-0
NCI-H460 = system: NCI-H460
DMS-114 = system: DMS-114
CCRF-CEM = system: CCRF-CEM
OVCAR-8 = system: OVCAR-8
RXF 393 = system: RXF 393
OVCAR-5 = system: OVCAR-5
LXFL 529 = system: LXFL 529
XF498 = system: XF498
ACHN = system: ACHN
SK-MEL-28 = system: SK-MEL-28
NCI-H522 = system: NCI-H522
HOP-62 = system: HOP-62
SN12C = system: SN12C
HOP-92 = system: HOP-92
SNB-19 = system: SNB-19
TK-10 = system: TK-10
SK-MEL-2 = system: SK-MEL-2
A549 = system: A549
M14 = system: M14
UACC-257 = system: UACC-257
RPMI-8226 = system: RPMI-8226
HCT-116 = system: HCT-116
RXF 631 = system: RXF 631
OVCAR-4 = system: OVCAR-4
SNB-78 = system: SNB-78
CAKI-1 = system: CAKI-1
M19-MEL = system: M19-MEL
SW-620 = system: SW-620
U-251 = system: U-251
NCI-H226 = system: NCI-H226
OVCAR-3 = system: OVCAR-3
SF-539 = system: SF-539
KM-20L2 = system: KM-20L2
SF-295 = system: SF-295
IGROV-1 = system: IGROV-1
LOX IMVI = system: LOX IMVI
HT-29 = system: HT-29
NCI-H23 = system: NCI-H23
UO-31 = system: UO-31
SR = system: SR
SF-268 = system: SF-268
HL-60 = system: HL-60
KM12 = system: KM12
DLD-1 = system: DLD-1

Measured: GI50

COC(=O)C(=O)C(CC(=O)Nc1c(C)cccc1C)C(=O)OC (stereo not given)
> 100 µM: HCT-15
inactive: UACC-62 > 100 µM | EKVX > 100 µM | Malme-3M > 100 µM | HCC 2998 > 100 µM | MOLT-4 > 100 µM | SK-OV-3 > 100 µM | K562 > 100 µM | HOP-18 > 100 µM | SK-MEL-5 > 100 µM | 786-0 > 100 µM | NCI-H460 > 100 µM | DMS-114 > 100 µM | CCRF-CEM > 100 µM | OVCAR-8 > 100 µM | RXF 393 > 100 µM | OVCAR-5 > 100 µM | LXFL 529 > 100 µM | XF498 > 100 µM | ACHN > 100 µM | SK-MEL-28 > 100 µM | NCI-H522 > 100 µM | HOP-62 > 100 µM | SN12C > 100 µM | HOP-92 > 100 µM | SNB-19 > 100 µM | TK-10 > 100 µM | SK-MEL-2 > 100 µM | A549 > 100 µM | M14 > 100 µM | UACC-257 > 100 µM | RPMI-8226 > 100 µM | HCT-116 > 100 µM | RXF 631 > 100 µM | OVCAR-4 > 100 µM | SNB-78 > 100 µM | CAKI-1 > 100 µM | M19-MEL > 100 µM | SW-620 > 100 µM | U-251 > 100 µM | NCI-H226 > 100 µM | OVCAR-3 > 100 µM | SF-539 > 100 µM | KM-20L2 > 100 µM | SF-295 > 100 µM | IGROV-1 > 100 µM | LOX IMVI > 100 µM | HT-29 > 100 µM | NCI-H23 > 100 µM | UO-31 > 100 µM | SR > 100 µM | SF-268 > 100 µM | HL-60 > 100 µM | KM12 > 100 µM | DLD-1 > 100 µM
